Entries after “also recorded” stand apart in the source; their conditions may differ. Like-named read-outs stand apart in the source and are kept apart here. Bridge positions count the residues as written; N and C are the ends. Square brackets hold non-standard residues; d marks the D form. Peptide text beside a SMILES is read from it. pGlu = O=C1CC[C@@H](C(=O)O)N1
Key:
zebrafish αβδ nAChR [1] = format: cell-based, zebrafish (Danio rerio)
zebrafish αβδ nAChR [2] = format: cell-based, zebrafish (Danio rerio); remark: listed apart in the source

Structure (SMILES): CC[C@H](C)[C@@H]1NC(=O)[C@H](CC(C)C)NC(=O)[C@H](CCCNC(=N)N)NC(=O)[C@H](CC(=O)O)NC(=O)[C@H](CCCNC(=N)N)NC(=O)[C@H](Cc2ccccc2)NC(=O)[C@H](Cc2ccc(O)cc2)NC(=O)[C@H](CC(C)C)NC(=O)[C@@H]2CCCN2C(=O)[C@@H]2CSSC[C@@H](C(=O)O)NC(=O)[C@@H]3CSSC[C@H](NC(=O)[C@H](CCCCN)NC(=O)[C@@H]4CCC(=O)N4)C(=O)N[C@@H](CSSC[C@H](NC1=O)C(=O)N1CCC[C@H]1C(=O)N3)C(=O)N[C@@H](CO)C(=O)NCC(=O)NCC(=O)N[C@@H](CO)C(=O)N2 [αM-MIIIJ] ([pGlu]KCCSGGSCPLYFRDRLICPCC-OH; disulfide 3-21, 4-19, 9-22)
- protection against α-BgTX block (zebrafish αβδ nAChR [1]): largely protected
- protection against α-EI block (zebrafish αβδ nAChR [1]): rapidly reversed upon toxin washout; also recorded: completely protected
- affinity of αβδ relative to αβδε and αβδγ (zebrafish αβδ nAChR [2]): about a factor of two higher
- koff (zebrafish αβδ nAChR [2]): 0.0417 s⁻¹
- recovery of IACh on washout (zebrafish αβδ nAChR [2]): recovered almost completely within a minute
- reversibility of block (zebrafish αβδ nAChR [2]): readily reversible
- IC50 (zebrafish αβδ nAChR [2]; read-out: IC50): 33 nM
- IC50 (zebrafish αβδ nAChR [2]; read-out: IC50 (range statement)): ~50 nM
